Tests used:
[1] = tested on: cultured dorsal root ganglion (DRG) neurons; assay: Calcium flux in cultured DRG neurons (Fura-2AM calcium imaging); assay type: cell-based, mice
Protocol: Methods: Assessment of Compound 1 Induced Calcium Flux in Cultured DRG Neurons To evaluate the effect of Compound 1 and Compound 2 on calcium flux in cultured dorsal root ganglion (DRG) neurons isolated from 8-week-old male mice, the following protocols were performed:
• 8-week-old C57BL6 male mice • Fura-2AM (calcium indicator dye) • Compound 1 (at concentrations of 1 μM and 10 μM) • Compound 2 (at concentrations of 1 μM and 10 μM) • ATP (P2X3R agonist, 10 μM) • Capsaicin (TRPV1 ligand, 10 μM) • KCl (50 mM) • Calcium imaging setup (calcium microscope)
• Euthanize 8-week-old male mice according to ethical guidelines. • Harvest the dorsal root ganglia (DRG) from the mice.
• Culture the DRG neurons in appropriate growth media for 24 hours. 3. […]
• Measure and record the average calcium flux (A). • Determine the percentage of responding neurons, identifying responding neurons as those with an f340/f380 fluorescence ratio >10% (B).
Eight-week-old C57BL6 male mice were euthanized, DRG harvested, and neurons cultured for 24 hours. The neurons were then loaded with Fura-2AM, a calcium-responsive dye, and single-neuron calcium flux was recorded by calcium microscopy. […] Average calcium flux (FIG. 1A) and the percentage (FIG. 1B) of responding neurons (identified as f340/f380>10% fluorescence) are shown. […]

C57BL6 mice = assay: CFA inflammatory pain model, Blackbox behavioral analysis of hind paw usage; assay type: in vivo; settings: for reversal of CFA-induced mechanical hypersensitivity: beginning at 24 hours after intraplantar administration
Text: To evaluate the effect of different treatments on voluntary pain-related behaviors in mice, we used the Blackbox behavioral analysis system, as previously described (Zhang, et al., PAIN, 2022 Dec. 1; 163 (12): 2326-2336, incorporated herein by reference in its entirety).
• Male and female C57BL6 mice (n=5 per group) • Complete Freund's Adjuvant (CFA, Sigma) • Saline • PBS • DMSO • Compound 1 • Compound 2 • Syringes (for injections) • Hargreaves apparatus (for thermal pain testing) • Blackbox behavioral analysis setup
• Divide mice into groups (n=10 per group). • Inject 20 μL of CFA or saline into the right hind paw of each mouse.
• 24 hours after CFA injection, randomly assign mice to the following groups: • Control Group: PBS+PBS • CFA+PBS Group • CFA+DMSO Group • CFA+Compound 1 Group • CFA+Compound 2 Group
• Inject the designated treatment (PBS (20 μL), DMSO (20 μL), Compound 1 (1 μM in 20 μL PBS), or Compound 2 (1 μM in 20 μL DMSO)) into the plantar right paw of each mouse according to their assigned group.
• Perform Blackbox behavioral analysis and Hargreaves test at the following time points after drug injection: 1 hour, 3 hours, 6 hours, and 24 hours.
• Blackbox Behavioral Analysis: • Place each mouse in the Blackbox apparatus for 10 minutes. • Record and analyze behaviors indicative of pain or discomfort (e.g., grooming, paw licking, flinching).
• Record the data for each mouse at each time point. • Compare the results across different groups to assess the effects of the treatments on pain response.
This protocol outlines the steps to assess the impact of different treatments on pain response in mice using Blackbox behavioral analysis. Mice are injected with CFA or saline, followed by treatment with Compound 1 or Compound 2, and negative controls using vehicle (PBS or DMSO) alone.
• 1. Control Group: PBS+PBS • 2. CFA+PBS Group • 3. CFA+DMSO Group • 4. CFA+Compound 1 Group • 5. CFA+Compound 2 Group
• 1 hour after drug injection • 3 hours after drug injection • 6 hours after drug injection • 24 hours after drug injection Precise timing and consistent handling throughout the experiment were utilized to maintain the validity of the results.
Effect of Compound 1. Eight-week-old male and female mice (n=5 mice/group) were injected with CFA (20 μL; intradermal) or saline (20 μL) into the right hind paw. Left (contralateral) hindpaw luminance (FIG. 3A) and ratio of time (FIG. 3B), as well as right hindpaw luminance (FIG. 4A) and ratio of time (FIG. 4B), were assessed as surrogates for mechanical pain hypersensitivity at 1-, 3-, 6-, and 24-hours post-treatment.
Data were analyzed using a two-way ANOVA to assess the effects of CFA injection and subsequent treatments on hindpaw usage and thermal pain hypersensitivity. Post-hoc comparisons were performed using Dunnett's test to identify significant differences between treatment groups.
Effect of Compound 2. Eight-week-old male and female mice (n=5 mice/group) were injected with CFA (20 μL; intradermal) or saline (20 μL) into the right hind paw. Left (contralateral) hind paw luminance (FIG. 5A) and ratio of time (FIG. 5B), as well as right hindpaw luminance (FIG. 6A) and ratio of time (FIG. 6B), were assessed as a readout of mechanical pain hypersensitivity at 1-, 3-, 6-, and 24-hours post-treatment.
Data were analyzed using a two-way ANOVA to assess the effects of CFA injection and subsequent treatments on hindpaw usage (mechanical hypersensitivity). Post-hoc comparisons were performed using Dunnett's test to identify significant differences between treatment groups.

[2] = Compound 1, 1 μM in 20 μL PBS, plantar right paw, 24 hours after CFA, 1, 3, 6, 24 hours post-treatment

| SMILES | calcium flux / activation of DRG neurons (interpretation) [1] | CFA-induced durable reduction of right paw usage (C57BL6 mice; [2]) | left (contralateral) paw usage after CFA in the right paw, compared to control mice (C57BL6 mice; [2]) | reversal of CFA-induced mechanical hypersensitivity (C57BL6 mice) | left (contralateral) paw usage after CFA in the right paw, compared to control mice (C57BL6 mice; Compound 2, 1 μM in 20 μL DMSO, plantar right paw, 24 hours after CFA, 1, 3, 6, 24 hours post-treatment) | CFA-induced durable reduction of right (injured) paw usage (C57BL6 mice; Compound 2, 1 μM in 20 μL DMSO, plantar right paw, effect beginning 24 hours after compound administration) |
| --- | --- | --- | --- | --- | --- | --- |
| CCN(CC)C(=O)[C@@H]1C=C2c3cccc4[nH]cc(c34)C[C@H]2[N+](C)(CC)C1 (stereo partly drawn) [Compound 1, (6aR,9R)-9-(diethylcarbamoyl)-7-ethyl-7-methyl-4,6,6a,7,8,9-hexahydroindolo[4,3-fg]quinolin-7-ium Iodide] | produced calcium flux | partly reduced | did not change | partial reversal | – | – |
| CCCCCC[N+]1(C)C[C@H](C(=O)N(CC)CC)C=C2c3cccc4[nH]cc(c34)C[C@H]21 (stereo partly drawn) [Compound 2, (6aR,9R)-9-(diethylcarbamoyl)-7-hexyl-7-methyl-4,6,6a, 7,8,9-hexahydroindolo[4,3-fg]quinolin-7-ium Iodide] | did not produce calcium flux | – | – | partial reversal | did not change | partly reduced |
